In US11001587B2, “Substituted indazoles as phosphatidylinositol kinase inhibitors” (CUROVIR AB, priority 2017, dated 2021):
Where two headings read alike, the source gives them in different places.

Assays:
[1] = in vivo; set-up: species or system Sprague Dawley rats; conditions: Sprague Dawley, rat, po
Procedure: Based on previous toxicity tests with analogs and pharmacokinetic data, repeated dose toxicity and toxicokinetic studies were conducted to generate information on the toxic characteristics of some representative compounds of the invention, viz. Example 8 and Example 12, respectively, when administered orally by gavage to Sprague Dawley rats for a period of 7 consecutive days. The study plan for the studies was by current ICH guidelines for 7 days toxicity studies and the No Observed Adverse Effect Level (NOAEL) of Example 8 and Example 12 was determined as 60 mg/kg body weight/day and 50 mg/kg bodyweight/day respectively when administered once daily orally to Sprague Dawley rats for 7 consecutive days under the tested dose levels and experimental conditions employed.

[2] = system: Coxsackie B3 (Nancy strain) virus; assay: CVB3-induced pancreatitis mouse model; type: in vivo; conditions: Coxsackie B3 Nancy strain infected SJL mice, 4 different dosages, treated 2 h pre-infection then once daily for 3 days
Procedure: Compounds of the present invention were studied in a CVB3 induced pancreatitis mouse model as described by van der Schaar et al (Antimicrob. Agents Chemother. 2013, 57(10):4971-4981). Animals (SJL mice) were infected intraperitoneally with 0.3 ml Coxsackie B3 (Nancy strain) virus (log TCID50=8). The animals were treated 2 h pre-infection and then once daily for 3 days. The animals were euthanized and organs were collected for pancreatitis evaluation by histopathology and for virus titer determination by immunohistochemistry and polymerase chain reaction (PCR). Pancreata were obtained from infected and uninfected control animals and from animals treated with 4 different dosages of Example 8, and HE-stained slides of the organs were prepared, studied and scored for signs of inflammation and necrosis on a scale from 0 to 3, as follows: 0=no abnormalities. […] The virus titer in the organs was determined by immunohistochemistry using the Dako 5-D8/1 monoclonal mouse antibody and the titer was scored on a scale from 0 to 4, where 0 indicates no infection and 4 corresponds to the highest determined virus titer (FIG. 4). The Ct values from PCR detection of virus titers were determined (FIG. 5). […] Corresponding studies were also performed on Examples 2, 8 and 20 at a dosage of 50 mg/kg/day and pancreatitis scoring and Ct values were determined (FIG. 6).

[3] = system: EV71; assay: Time of addition assay; type: cell-based, Enterovirus 71; conditions: Enterovirus A, 100 nM, EV71 at high titer
Procedure: The titer of the virus was determined by the standard method of tissue culture infective dose (TCID50) on cells. Briefly, cells were infected with 50 μl of virus suspension, and diluted 10-fold in media. The plates were incubated in 37° C. with 5% CO2 for 3-7 days and cells were inspected daily for CPE. After determining CPE, plates were stained with Gram's Crystal Violet solution and optical density was read at 540 nm. […] Substances at a final concentration of 0.1 nM-1 μM and the virus were added to the cells and incubated for 3-7 days depending on the virus and cell line used. As controls, uninfected cells and cells infected with virus (no substance) were included on each plate. The cells were stained with crystal violet after determining the CPE on infected controls and the optical density was read at 540 nm. The inhibition capacity was calculated as a % by comparison with non-infected and infected controls. Time of addition assay The assay was performed like the “in vitro assay in mammalian cell culture” described above with the exception that substance was added one hour pre inoculation (−1 h), at inoculation (0 h), and 2 hours (+2 h), 6 hours (+6 h) or 24 hours (+24 h) past inoculation. The virus EV71 was used at high titer for the test.

| SMILES | NOAEL at 7 days [1] | Dose-response of pancreatitis scoring and virus titer [2] | inhibition at 0.1 µM ([3]; 0 h, substance added at inoculation, read-out: Inhibition of cytopathogenic effect, 0 h) | inhibition at 0.1 µM ([3]; 1 h, substance added one hour pre inoculation, read-out: Inhibition of cytopathogenic effect, −1 h) | inhibition at 0.1 µM ([3]; substance added 2 hours past inoculation, read-out: Inhibition of cytopathogenic effect, +2 h) | inhibition at 0.1 µM ([3]; substance added 6 hours past inoculation, read-out: Inhibition of cytopathogenic effect, +6 h) | inhibition at 0.1 µM ([3]; substance added 24 hours past inoculation, read-out: Inhibition of cytopathogenic effect, +24 h) |
| --- | --- | --- | --- | --- | --- | --- | --- |
| Cc1cc(NCc2ccncc2)n2nc(C)c(-c3ccc4c(c3)c(C)nn4C)c2n1 [Example 8, 3-(1,3-dimethyl-1H-indazol-5-yl)-2,5-dimethyl-N-(pyridin-4-ylmethyl)pyrazolo[1,5-a]pyrimidin-7-amine] | 60 mg/kg/day | very good dose-response | – | – | – | – | – |
| Cc1nc(NCc2ccncc2)n2nc(C)c(-c3ccc4c(c3)c(C)nn4C)c2n1 [Example 20, 8-(1,3-dimethyl-1H-indazol-5-yl)-2,7-dimethyl-N-(pyridin-4-ylmethyl)pyrazolo[1,5-a][1,3,5]triazin-4-amine] | – | – | 94% | 85% | 95% | 99% | 2% |
